Source: publication PMC6264177, “Synthesis and Characterization of (Z)-5-Arylmethylidene-rhodanines with Photosynthesis-Inhibiting Properties ^†” (Molecules, 2011)
Where “and” joins values, the source holds several entries; their conditions need not be identical. Identical values can stand only once. Like-named read-outs stand apart in the source and are kept apart here.

Columns and labels:
[1] = Lipophilicity HPLC determination (capacity factor k / log k); format: physicochemical; conditions: RP-HPLC, C18 column, isocratic, MeOH 70% / H2O 30%
Description: The procedure was performed under isocratic conditions with methanol as an organic modifier in the mobile phase using an end-capped non-polar C18 stationary RP column. […] The HPLC separation process was monitored by Empower™ 2 Chromatography Data Software, Waters 2009 (Waters Corp., Milford, MA, USA). […] The detection wavelength of 210 nm was chosen. The KI methanolic solution was used for the dead time (tD) determination. Retention times (tR) were measured in minutes. […] Log k, calculated from the capacity factor k, is used as the lipophilicity index converted to log P scale.

[2] = tested on: photosynthetic electron transport (PET) in spinach chloroplasts; test: Inhibition of photosynthetic electron transport (PET) in spinach chloroplasts, DCPIP photoreduction; format: biochemical, Spinacia oleracea L.; conditions: DCPIP as electron acceptor, pH 7.2
Description: Chloroplasts were prepared from spinach (Spinacia oleracea L.) according to ref. [54]. The inhibition of photosynthetic electron transport (PET) in spinach chloroplasts was determined spectrophotometrically (Genesys 6, Thermo Scientific, USA) using an artificial electron acceptor 2,6-dichlorophenol-indophenol (DCIPP) according to ref. [55], and the rate of photosynthetic electron transport was monitored as a photoreduction of DCPIP. The measurements were carried out in phosphate buffer (0.02 mol/L, pH 7.2) containing sucrose (0.4 mol/L), MgCl2 (0.005 mol/L) and NaCl (0.015 mol/L). The chlorophyll content was 30 mg/L in these experiments, and the samples were irradiated (~100 W/m^2) from 10 cm distance with a halogen lamp (250 W) using a 4 cm water filter to prevent warming of the samples (suspension temperature 22 °C). The studied compounds were dissolved in DMSO due to their limited water solubility.

Chlorella vulgaris = test: Reduction of chlorophyll content in green algae Chlorella vulgaris; format: cell-based, Chlorella vulgaris Beij.; conditions: 168 h; for inhibition at 100 µM: 100 μmol/L of the compound, 7-day cultivation, read-out: Chlorella vulgaris reduction of Chl. cont.; for IC50: read-out: Chlorella vulgaris IC50 (50% reduction of chlorophyll content), 7-day cultivation
Description: (photoperiod 16 h light/8 h dark; photosynthetically active radiation (PAR) 80 μmol/m^2s; pH 7.2). The effect of rhodanine compounds on algal chlorophyll (Chl) content was determined after 7-day cultivation in the presence of the compounds tested, expressing the response as percentage of the corresponding values obtained for control. The Chl content in the algal suspension was determined spectrophotometrically (Genesys 6, Thermo Scientific, USA) after extraction into methanol according to Wellburn [58].

[3] = tested on: photosynthetic electron transport; parameters: method as in doi:10.1584/jpestics.22.1; conditions: ref [14], read-out: IC50 of PET inhibition, cited from earlier work
[4] = tested on: Daucus carota L. var. sativa DC; parameters: method as in doi:10.1271/bbb.60.1368; conditions: 0.3 mmol/L; ref [13]; cited from earlier work
[5] = tested on: seeds of Daucus carota L. var. sativa DC; parameters: method as in doi:10.1271/bbb.60.1368; conditions: 1 mmol/L; ref [13]; cited from earlier work
seeds of Sesamum indicum = tested on: seeds of Sesamum indicum; parameters: method as in doi:10.1271/bbb.60.1368; conditions: 1 mmol/L; ref [13]; cited from earlier work
[6] = tested on: cotyledons of Brassica rapa L.; conditions: 0.3 mmol/L; ref [11]; cited from earlier work
[7] = tested on: immature cells of Marchantia polymorpha; parameters: method as in doi:10.1584/jpestics.22.1; conditions: 1 mmol/L, within 90 hours; ref [14]; cited from earlier work
[8] = tested on: photosynthetic electron transport (PET) in spinach chloroplasts; parameters: method as in earlier work; conditions: standard DCMU; ref [56]; cited from earlier work

SMILES | log k [1] | IC50 [2] [µM] | inhibition at 100 µM (Chlorella vulgaris) [%] | also measured
O=C1NC(=S)S/C1=C\c1ccccn1 [Compound 12, (5Z)-5-(Pyridin-2-ylmethylidene)-2-thioxo-1,3-thiazolidin-4-one] | 0.4864 | – | – | –
O=C1NC(=S)S/C1=C\c1cnccn1 [Compound 15, (5Z)-5-(Pyrazin-2-ylmethylidene)-2-thioxo-1,3-thiazolidin-4-one] | 0.2359 | 216 | 1.8 | –
O=C1NC(=S)S/C1=C\c1ccc(O)cc1O [Compound 3, (5Z)-5-(2,4-Hydroxybenzylidene)-2-thioxo-1,3-thiazolidin-4-one] | 0.2776 | – | 48.5 | IC50 (Chlorella vulgaris): 108 µM
O=C1NC(=S)S/C1=C\c1cccnc1 [Compound 13, (5Z)-5-(Pyridin-3-ylmethylidene)-2-thioxo-1,3-thiazolidin-4-one] | 0.4539 | – | – | –
O=C1CSC(=S)N1 [rhodanine] | – | – | – | IC50 ([3]; assay done after illumination for 3 min): 100 µM; IC50 ([3]; normal 1 min assay): ~1000 µM; inhibition of growth of Daucus carota [4]: strongly inhibited; inhibition of germination of seeds of Daucus carota [5]: inhibited; inhibition of germination of seeds of Sesamum indicum (seeds of Sesamum indicum): inhibited; inhibition of chlorophyll synthesis in cotyledons [6]: strongly inhibited; inhibition of growth of immature cells [7]: completely inhibited
O=C1NC(=S)S/C1=C\c1ccncc1 [Compound 14, (5Z)-5-(Pyridin-4-ylmethylidene)-2-thioxo-1,3-thiazolidin-4-one] | 0.1878 | – | – | –
COc1cc(/C=C2\SC(=S)NC2=O)ccc1O [Compound 5, (5Z)-5-(4-Hydroxy-3-methoxybenzylidene)-2-thioxo-1,3-thiazolidin-4-one] | 0.3553 | – | 19.4 | –
O=C(O)CN1C(=O)CSC1=S [rhodanine-N-acetic acid] | – | – | – | inhibition of growth of Daucus carota [4]: strongly inhibited; inhibition of germination of seeds of Daucus carota [5]: inhibited; inhibition of germination of seeds of Sesamum indicum (seeds of Sesamum indicum): inhibited
CN(C)c1ccc(/C=C2\SC(=S)NC2=O)cc1 [Compound 6, (5Z)-5-[(4-Dimethylamino)benzylidene]-2-thioxo-1,3-thiazolidin-4-one] | 0.6466 | – | 12.6 | –
CN(C)C(=O)Nc1ccc(Cl)c(Cl)c1 [DCMU, 3-(3,4-dichlorophenyl)-1,1-dimethylurea] | – | – | – | IC50 (Chlorella vulgaris): ~7.3 µM; IC50 [8]: ~1.9 µM and 1.9 µM
O=C1NC(=S)S/C1=C\c1ccco1 [Compound 16, (5Z)-5-(Furan-2-ylmethylidene)-2-thioxo-1,3-thiazolidin-4-one] | 0.4656 | – | – | –

Further lines, with some results ahead:

log k [1] | IC50 [2] [µM] | SMILES | inhibition at 100 µM (Chlorella vulgaris) [%] | also measured
0.9368 | 18.1 | O=C1NC(=S)S/C1=C\c1ccccc1Br [Compound 10a, (5Z)-5-(2-Bromobenzylidene)-2-thioxo-1,3-thiazolidin-4-one] | – | –
0.4664 | 369 | O=C1NC(=S)S/C1=C\c1ccccc1O [Compound 2a, (5Z)-5-(2-Hydroxybenzylidene)-2-thioxo-1,3-thiazolidin-4-one] | 59 | IC50 (Chlorella vulgaris): 59.4 µM
1.0270 | 17 | O=C1NC(=S)S/C1=C\c1cccc(Cl)c1 [Compound 9b, (5Z)-5-(3-Chlorobenzylidene)-2-thioxo-1,3-thiazolidin-4-one] | – | –
0.5936 | 6 | O=C1NC(=S)S/C1=C\c1ccc(Cl)cc1 [Compound 9c, (5Z)-5-(4-Chlorobenzylidene)-2-thioxo-1,3-thiazolidin-4-one] | 84.8 | IC50 (Chlorella vulgaris): 1.3 µM
0.8204 | 23.8 | O=C1NC(=S)S/C1=C\c1cccc(F)c1 [Compound 8b, (5Z)-5-(3-Fluorobenzylidene)-2-thioxo-1,3-thiazolidin-4-one] | – | –
0.6349 | – | O=C1/C(=C/c2ccc([N+](=O)[O-])cc2)SC(=S)N1CCO [Compound 11c, (5Z)-3-(2-Hydroxyethyl)-5-(4-nitrobenzylidene)-2-thioxo-1,3-thiazolidin-4-one] | – | –
0.6940 | 3 | O=C1NC(=S)S/C1=C\c1ccc(Br)cc1 [Compound 10c, (5Z)-5-(4-Bromobenzylidene)-2-thioxo-1,3-thiazolidin-4-one] | – | –
0.5713 | 221 | COc1cccc(/C=C2\SC(=S)NC2=O)c1 [Compound 4b, (5Z)-5-(3-Methoxybenzylidene)-2-thioxo-1,3-thiazolidin-4-one] | – | –
0.6077 | – | O=C1/C(=C/c2cccc([N+](=O)[O-])c2)SC(=S)N1CCO [Compound 11b, (5Z)-3-(2-Hydroxyethyl)-5-(3-nitrobenzylidene)-2-thioxo-1,3-thiazolidin-4-one] | – | –
0.2436 | 20.1 | O=C1NC(=S)S/C1=C\c1ccc([N+](=O)[O-])cc1 [Compound 7c, (5Z)-5-(4-Nitrobenzylidene)-2-thioxo-1,3-thiazolidin-4-one] | 87.1 | IC50 (Chlorella vulgaris): 21.9 µM
0.4751 | 127 | O=C1/C(=C/c2ccccc2[N+](=O)[O-])SC(=S)N1CCO [Compound 11a, (5Z)-3-(2-Hydroxyethyl)-5-(2-nitrobenzylidene)-2-thioxo-1,3-thiazolidin-4-one] | – | –
0.2641 | – | O=C1NC(=S)S/C1=C\c1ccc(O)cc1 [Compound 2c, (5Z)-5-(4-Hydroxybenzylidene)-2-thioxo-1,3-thiazolidin-4-one] | 29.8 | –
0.5425 | 174 | COc1ccc(/C=C2\SC(=S)NC2=O)cc1 [Compound 4c, (5Z)-5-(4-Methoxybenzylidene)-2-thioxo-1,3-thiazolidin-4-one] | – | –
0.2744 | 444 | O=C1NC(=S)S/C1=C\c1cccc(O)c1 [Compound 2b, (5Z)-5-(3-Hydroxybenzylidene)-2-thioxo-1,3-thiazolidin-4-one] | 9.6 | –
0.2399 | 16.9 | O=C1NC(=S)S/C1=C\c1cccc([N+](=O)[O-])c1 [Compound 7b, (5Z)-5-(3-Nitrobenzylidene)-2-thioxo-1,3-thiazolidin-4-one] | 85.7 | IC50 (Chlorella vulgaris): 4.4 µM
0.7909 | 63.5 | O=C1NC(=S)S/C1=C\c1ccc(F)cc1 [Compound 8c, (5Z)-5-(4-Fluorobenzylidene)-2-thioxo-1,3-thiazolidin-4-one] | – | –
1.0820 | 5.2 | O=C1NC(=S)S/C1=C\c1cccc(Br)c1 [Compound 10b, (5Z)-5-(3-Bromobenzylidene)-2-thioxo-1,3-thiazolidin-4-one] | – | –
0.8108 | 99.5 | O=C1NC(=S)S/C1=C\c1ccccc1F [Compound 8a, (5Z)-5-(2-Fluorobenzylidene)-2-thioxo-1,3-thiazolidin-4-one] | – | –
0.5867 | – | COc1ccccc1/C=C1\SC(=S)NC1=O [Compound 4a, (5Z)-5-(2-Methoxybenzylidene)-2-thioxo-1,3-thiazolidin-4-one] | – | –
0.2254 | 428 | O=C1NC(=S)S/C1=C\c1ccccc1[N+](=O)[O-] [Compound 7a, (5Z)-5-(2-Nitrobenzylidene)-2-thioxo-1,3-thiazolidin-4-one] | – | –
0.9019 | 53.3 | O=C1NC(=S)S/C1=C\c1ccccc1Cl [Compound 9a, (5Z)-5-(2-Chlorobenzylidene)-2-thioxo-1,3-thiazolidin-4-one] | – | –
